From patent publication US10988523B2, “Modified lipidated Relaxin B chain peptides and their therapeutic use” (Sanofi, priority 2018, dated 2021)
*1 amine or outer side, *2 acyl side, *3 side chain or, on linkers, in order; H or OH if unused. Where a SMILES comes first, the peptide text is derived from it. Side-chain parts run from the residue outwards. [ ]: non-standard residue; d: D form. The star is where a group is joined. γGlu = O=C(O)[C@H](CCC(=O)[*:2])N[*:1]; Pentadecanoyl = CCCCCCCCCCCCCCC(=O)*; Stearoyl = CCCCCCCCCCCCCCCCCC(=O)*; Palmitoyl = CCCCCCCCCCCCCCCC(=O)*; αMeK = C[C@](N)(CCCCN)C(=O)O; Nle = CCCC[C@H](N)C(=O)O; AEEA = NCCOCCOCC(=O)O; Aib = CC(C)(N)C(=O)O

Target: T1, RXFP1 (Homo sapiens, UniProt Q9HBX9)
T1 construct: OVCAR5 cells expressing endogenous RXFP1; endogenous in cells; host or cells: OVCAR5 cells
T1 sequence (Q9HBX9 1-757): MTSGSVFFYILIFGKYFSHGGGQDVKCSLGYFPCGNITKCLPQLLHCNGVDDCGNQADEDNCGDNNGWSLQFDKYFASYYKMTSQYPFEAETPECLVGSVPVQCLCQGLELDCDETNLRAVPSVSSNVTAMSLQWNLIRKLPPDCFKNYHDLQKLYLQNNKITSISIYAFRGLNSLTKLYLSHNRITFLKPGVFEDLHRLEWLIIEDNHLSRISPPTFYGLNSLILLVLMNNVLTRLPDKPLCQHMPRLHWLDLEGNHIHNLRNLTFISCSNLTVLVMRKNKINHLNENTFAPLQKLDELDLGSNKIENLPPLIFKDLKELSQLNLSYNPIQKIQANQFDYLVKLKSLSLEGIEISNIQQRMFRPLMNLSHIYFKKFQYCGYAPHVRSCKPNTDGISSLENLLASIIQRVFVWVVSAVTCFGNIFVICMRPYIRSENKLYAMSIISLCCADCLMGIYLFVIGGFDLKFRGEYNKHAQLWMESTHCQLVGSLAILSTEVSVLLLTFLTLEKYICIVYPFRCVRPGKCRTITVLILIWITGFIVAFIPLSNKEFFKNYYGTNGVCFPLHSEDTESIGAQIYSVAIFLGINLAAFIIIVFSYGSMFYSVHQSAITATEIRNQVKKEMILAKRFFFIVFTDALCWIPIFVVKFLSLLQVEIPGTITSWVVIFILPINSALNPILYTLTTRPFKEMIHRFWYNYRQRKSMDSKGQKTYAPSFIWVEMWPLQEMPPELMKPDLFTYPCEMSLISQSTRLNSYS
Experiment: OVCAR5 cAMP assay (HTRF), RXFP1 agonist activity
Format: cell-based
Details: for EC50: OVCAR5 cells, cAMP HTRF, read-out: EC50 (nM), OVCAR 5 cells (cAMP); for Emax: OVCAR-5, maximal cAMP relative to H2-relaxin maximum (100%), read-out: EMax, OVCAR 5 cells (cAMP)
Method in brief: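 OVCAR5 cells (endogenous RXFP1) pretreated 40 min at 37° C with 1 mM IBMX, then exposed to peptides in serum-free medium for 30 min at 37° C. Lysate cAMP read by HTRF; EC50 from variable-slope sigmoidal fit; Emax as % of H2-relaxin maximal cAMP in same run.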

How did the EC50 turn out when CCCCCCCCCCCCCCCCCC(=O)N[C@@H](CCC(=O)NCCOCCOCC(=O)NCCOCCOCC(=O)N[C@@H](CCC(=O)N[C@@H](CCC(=O)NCCCC[C@H](NC(=O)[C@H](CCCCN)NC(=O)[C@H](CCCNC(=N)N)NC(=O)C(C)(C)NC(=O)[C@H](CO)NC(=O)[C@H](Cc1c[nH]c2ccccc12)NC(=O)[C@@H](NC(=O)[C@H](CO)NC(=O)[C@H](CCCC)NC(=O)CNC(=O)[C@H](CCC(=O)O)NC(=O)C(C)(C)NC(=O)C(C)(C)NC(=O)[C@@H](NC(=O)[C@H](CCC(N)=O)NC(=O)[C@H](C)NC(=O)[C@H](CCCNC(=N)N)NC(=O)[C@@H](NC(=O)[C@H](CCCCN)NC(=O)[C@H](CCC(=O)O)NC(=O)[C@H](CCCNC(=N)N)NC(=O)CNC(=O)[C@H](CCC(=O)O)NC(=O)[C@H](CC(C)C)NC(C)=O)C(C)C)[C@@H](C)CC)[C@@H](C)O)C(N)=O)C(=O)O)C(=O)O)C(=O)O [compound 104] (Ac-LEGREKVRAQI[Aib][Aib]EG[Nle]STWS[Aib]RKK([γGlu-γGlu-AEEA-AEEA-γGlu-Stearoyl])-NH2) was run?
Its EC50 is 0.16 nM.

What about the Emax of the same compound?
Its Emax is 89%.

Which results are given for CCCCCCCCCCCCCCCCCC(=O)N[C@@H](CCC(=O)NCCOCCOCC(=O)N[C@@H](CCC(=O)N[C@@H](CCC(=O)NCCOCCOCC(=O)NCCOCCOCC(=O)NCCCC[C@H](NC(=O)[C@H](CCCCN)NC(=O)[C@H](CCCCN)NC(=O)[C@H](CCCNC(=N)N)NC(=O)C(C)(C)NC(=O)[C@H](CO)NC(=O)[C@H](Cc1c[nH]c2ccccc12)NC(=O)[C@@H](NC(=O)[C@H](CO)NC(=O)[C@H](CCCC)NC(=O)CNC(=O)[C@H](CCC(=O)O)NC(=O)C(C)(C)NC(=O)C(C)(C)NC(=O)[C@@H](NC(=O)[C@H](CCC(N)=O)NC(=O)[C@H](C)NC(=O)[C@H](CCCNC(=N)N)NC(=O)[C@@H](NC(=O)[C@H](CCCCN)NC(=O)[C@H](CCC(=O)O)NC(=O)[C@H](CCCNC(=N)N)NC(=O)CNC(=O)[C@H](CCC(=O)O)NC(=O)[C@H](CC(C)C)NC(C)=O)C(C)C)[C@@H](C)CC)[C@@H](C)O)C(N)=O)C(=O)O)C(=O)O)C(=O)O [compound 99] (Ac-LEGREKVRAQI[Aib][Aib]EG[Nle]STWS[Aib]RKKK([AEEA-AEEA-γGlu-γGlu-AEEA-γGlu-Stearoyl])-NH2)?
EC50: 0.01 nM; Emax: 87%

CCCCCCCCCCCCCCCCCC(=O)N[C@@H](CCC(=O)N[C@@H](CCC(=O)N[C@@H](CCC(=O)N[C@@H](CCC(=O)NCCOCCOCC(=O)NCCOCCOCC(=O)NCCOCCOCC(=O)NCCCC[C@H](NC(=O)[C@H](CCCCN)NC(=O)[C@H](CCCCN)NC(=O)[C@H](CCCNC(=N)N)NC(=O)C(C)(C)NC(=O)[C@H](CO)NC(=O)[C@H](Cc1c[nH]c2ccccc12)NC(=O)[C@@H](NC(=O)[C@H](CO)NC(=O)[C@H](CCCC)NC(=O)CNC(=O)[C@H](CCC(=O)O)NC(=O)C(C)(C)NC(=O)C(C)(C)NC(=O)[C@@H](NC(=O)[C@H](CCCCNC(C)=O)NC(=O)[C@H](C)NC(=O)[C@H](CCCNC(=N)N)NC(=O)[C@@H](NC(=O)[C@H](CCCCN)NC(=O)[C@H](CCC(=O)O)NC(=O)[C@H](CCCNC(=N)N)NC(=O)CNC(=O)[C@H](CCC(=O)O)NC(=O)[C@H](CC(C)C)NC(C)=O)C(C)C)[C@@H](C)CC)[C@@H](C)O)C(N)=O)C(=O)O)C(=O)O)C(=O)O)C(=O)O [compound 89] (Ac-LEGREKVRAK(Ac)I[Aib][Aib]EG[Nle]STWS[Aib]RKKK([AEEA-AEEA-AEEA-γGlu-γGlu-γGlu-γGlu-Stearoyl])-NH2) was tested. Which EC50 did it give?
The EC50 was 0.03 nM.

What about the Emax of the same compound?
The Emax was 79%.

What does the source list for CCCCCCCCCCCCCCCCCC(=O)N[C@@H](CCC(=O)N[C@@H](CCC(=O)N[C@@H](CCC(=O)NCCOCCOCC(=O)NCCOCCOCC(=O)NCCCC[C@H](NC(=O)[C@H](CCCCN)NC(=O)[C@H](CCCNC(=N)N)NC(=O)C(C)(C)NC(=O)[C@H](CO)NC(=O)[C@H](Cc1c[nH]c2ccccc12)NC(=O)[C@@H](NC(=O)[C@H](CO)NC(=O)[C@H](CCCC)NC(=O)CNC(=O)[C@H](CCC(=O)O)NC(=O)C(C)(C)NC(=O)C(C)(C)NC(=O)[C@@H](NC(=O)[C@H](CCCCNC(C)=O)NC(=O)[C@H](C)NC(=O)[C@H](CCCNC(=N)N)NC(=O)[C@@H](NC(=O)[C@H](CCCCN)NC(=O)[C@H](CCC(=O)O)NC(=O)[C@H](CCCNC(=N)N)NC(=O)CNC(=O)[C@H](CCC(=O)O)NC(=O)[C@H](CC(C)C)NC(C)=O)C(C)C)[C@@H](C)CC)[C@@H](C)O)C(N)=O)C(=O)O)C(=O)O)C(=O)O [compound 73] (Ac-LEGREKVRAK(Ac)I[Aib][Aib]EG[Nle]STWS[Aib]RKK([AEEA-AEEA-γGlu-γGlu-γGlu-Stearoyl])-NH2)?
EC50: 0.12 nM; Emax: 90%

With CCCCCCCCCCCCCCC(=O)N[C@@H](CCC(=O)N[C@@H](CCC(=O)N[C@@H](CCC(=O)N[C@@H](CCC(=O)NCCCC[C@H](NC(=O)COCCOCCNC(=O)COCCOCCNC(=O)COCCOCCNC(=O)COCCOCCNC(=O)[C@H](CCCCNC(C)=O)NC(=O)[C@H](C)NC(=O)[C@H](CCCNC(=N)N)NC(=O)[C@](C)(CCCCN)NC(=O)[C@H](CO)NC(=O)[C@H](Cc1ccccc1)NC(=O)[C@@H](NC(=O)[C@H](CO)NC(=O)[C@H](CCCC)NC(=O)CNC(=O)[C@H](CCC(=O)O)NC(=O)C(C)(C)NC(=O)C(C)(C)NC(=O)[C@@H](NC(=O)[C@H](CCCCNC(C)=O)NC(=O)[C@H](C)NC(=O)[C@H](CCCNC(=N)N)NC(=O)[C@@H](NC(=O)[C@H](CCCCN)NC(=O)[C@H](CCC(=O)O)NC(=O)[C@H](CCCNC(=N)N)NC(=O)CNC(=O)[C@H](CCC(=O)O)NC(=O)[C@H](CC(C)C)NC(C)=O)C(C)C)[C@@H](C)CC)[C@@H](C)O)C(N)=O)C(=O)O)C(=O)O)C(=O)O)C(=O)O [compound 167] (Ac-LEGREKVRAK(Ac)I[Aib][Aib]EG[Nle]STFS[αMeK]RAK(Ac)[AEEA][AEEA][AEEA][AEEA]K([γGlu-γGlu-γGlu-γGlu-Pentadecanoyl])-NH2) as the compound, how does the EC50 read?
Its EC50 is 0.05 nM.

What about the Emax of the same compound?
The Emax was 93%.

Which EC50 does the source give for CCCCCCCCCCCCCCCC(=O)N[C@@H](CCC(=O)N[C@@H](CCC(=O)N[C@@H](CCC(=O)NCCOCCOCC(=O)NCCOCCOCC(=O)NCCCC[C@H](NC(=O)[C@H](CCCCN)NC(=O)[C@H](CCCCN)NC(=O)[C@H](CCCNC(=N)N)NC(=O)C(C)(C)NC(=O)[C@H](CO)NC(=O)[C@H](Cc1c[nH]c2ccccc12)NC(=O)[C@@H](NC(=O)[C@H](CO)NC(=O)[C@H](CCCC)NC(=O)CNC(=O)[C@H](CCC(=O)O)NC(=O)C(C)(C)NC(=O)C(C)(C)NC(=O)[C@@H](NC(=O)[C@H](CCCCNC(C)=O)NC(=O)[C@H](C)NC(=O)[C@H](CCCNC(=N)N)NC(=O)[C@@H](NC(=O)[C@H](CCCCN)NC(=O)[C@H](CCC(=O)O)NC(=O)[C@H](CCCNC(=N)N)NC(=O)CNC(=O)[C@H](CCC(=O)O)NC(=O)[C@H](CC(C)C)NC(C)=O)C(C)C)[C@@H](C)CC)[C@@H](C)O)C(N)=O)C(=O)O)C(=O)O)C(=O)O [compound 60] (Ac-LEGREKVRAK(Ac)I[Aib][Aib]EG[Nle]STWS[Aib]RKKK([AEEA-AEEA-γGlu-γGlu-γGlu-Palmitoyl])-NH2) here?
The EC50 was 0.11 nM.

And the Emax?
The Emax was 91%.
